Laboratory results published in patent publication US6596863B2, “Medical composition containing nitroetheneamine Derivative or salt there of as active constituent” (Ishihara Sangyo Kaisha, Ltd., priority 1998, dated 2003).
Where two headings read alike, the source gives them in different places. Marks after values point to notes of the source that are not given here.

Columns and labels:
human MMP-7 = target: T1, human MMP-7 (Homo sapiens, UniProt P09237); assay: Enzyme inhibition activity against MMP-7 (matrilysin), fluorescent peptide substrate NFF-2; type: biochemical; conditions: human MMP-7, substrate NFF-2, 37° C. for 2.5 hours
T1 construct: purchased Kabushiki Kaisha Yagai Chuo Kenkyusho YU-31001
T1 sequence (P09237 95-267): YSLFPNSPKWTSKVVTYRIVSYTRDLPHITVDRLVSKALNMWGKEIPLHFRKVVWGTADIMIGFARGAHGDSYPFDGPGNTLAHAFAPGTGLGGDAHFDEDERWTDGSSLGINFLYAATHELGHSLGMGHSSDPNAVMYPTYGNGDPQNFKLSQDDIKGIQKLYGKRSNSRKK
Description: The inhibition activity against human MMP-7 was measured by the same method as the method for MMP-3, by using a MMP-7 solution (0.025 unit/ml; No. YU-31001, manufactured by Kabushiki Kaisha Yagai Chuo Kenkyusho, purity: at least 99.9%) and a fluorescent peptide substrate MOCAc—Arg-Pro-Lys-Pro-Tyr—Ala-Nva-Trp-Met-Lys(Dnp) -NH2 [NFF-2, No. 3167-v, manufactured by Peptide Institute, Inc.]. The enzymatic reaction was carried out at 37° C. for 2.5 hours in a dark place, and the relative fluorescence intensity was measured at a fluorescence wavelength of 400 nm with an excitation wavelength of 327 nm.

[1] = target: T2, human MMP-9 (gelatinase B) (Homo sapiens, UniProt P14780); assay: Inhibition activity against human MMP-9 (gelatinase B), fluorescent peptide substrate; type: biochemical
T2 construct: endogenous in cells; host or cells: HT1080 human fibrosarcoma cells (ATCC CCL-121), PMA-stimulated; enzyme purified from the culture supernatant
T2 sequence (P14780 107-707 limits assumed): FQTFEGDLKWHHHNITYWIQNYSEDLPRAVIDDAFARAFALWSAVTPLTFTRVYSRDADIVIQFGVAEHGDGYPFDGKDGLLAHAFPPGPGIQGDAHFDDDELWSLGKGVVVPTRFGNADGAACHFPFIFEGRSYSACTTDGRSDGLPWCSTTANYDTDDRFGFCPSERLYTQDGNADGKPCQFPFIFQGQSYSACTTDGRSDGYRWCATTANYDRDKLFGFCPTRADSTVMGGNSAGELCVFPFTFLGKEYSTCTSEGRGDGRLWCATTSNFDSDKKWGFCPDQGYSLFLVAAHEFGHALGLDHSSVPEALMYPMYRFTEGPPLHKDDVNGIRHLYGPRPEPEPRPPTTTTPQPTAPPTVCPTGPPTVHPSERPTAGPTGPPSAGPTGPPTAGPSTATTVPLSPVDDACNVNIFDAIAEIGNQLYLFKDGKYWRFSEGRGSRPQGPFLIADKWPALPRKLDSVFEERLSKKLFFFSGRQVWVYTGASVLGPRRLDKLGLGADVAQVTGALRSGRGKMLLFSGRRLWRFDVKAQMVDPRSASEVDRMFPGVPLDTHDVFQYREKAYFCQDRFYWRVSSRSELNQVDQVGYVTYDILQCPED
Summary of the method: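 MMP-9 purified from PMA-stimulated (10 ng/ml) HT1080 supernatant, or commercial enzyme (0.0125-0.025 unit/ml or 0.2 μg/ml final), incubated with compound and 10 μM final Mca-Pro-Leu-Gly-Leu-Dpa-Ala-Arg-NH2 fluorescent substrate at 37 °C for 3 h in the dark. Precursor enzyme activated with APMA.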

[2] = test system: Colon 26/AD cells (mouse colon cancer); type: in vivo
Description: Colon 26 mouse colon cancer cells (obtained from Cancer Chemotherapy Center Foundation for Cancer Research) were transplanted subcutaneously to BALB/c mouse, 10 days later, the grown tumor was taken out. It was hashed in a Hanks equilibrium salt solution and passed through a metal mesh to obtain single cells, which were cultured in vitro (37° C., 5% CO2) (using 10% fetal bovine serum-containing Dulbecco's Modified Eagle Medium (D-5648, manufactured by Sigma Co.)). […] The same cell strain always produced and secreted MMP-2 in the supernatant of the in vitro culture, but when cultured by an addition of TNF-α (50 ng/ml) in the culture solution, it produced MMP-9 remarkably.
With reference to the method by Tsuruo et al (Japanese Journal of Cancer Research (Gann), Vol. 75, 193-198, 1984), the inhibition effects against experimental lung metastasis were evaluated. Namely, 3×10^4 Colon 26/AD cells (suspended in 0.2 ml of Minimum Essential Medium (manufactured by Nissui Seiyaku K. K.)) cultured in vitro were transplanted through the tail vein of a male BALB/c AnNCrj mouse (purchased from Charles River Japan, Inc.) of 6 weeks old (Day 0). In the case of Compound No. 37, it was suspended in a 1% Tween 80/physiological sodium chloride aqueous solution and intraperitoneally administered (administered in a volume of 10 ml/kg) immediately (within 5 minutes) before transplantation of the cells, 2 hours later and once per day on Day 1-4 and Day 7-11 (a total of 11 times). Further, in the case of Compound No. 157, it was dissolved in 100 mM Tris-HCl (pH 8.5)/150 mM NaCl and forcibly orally administered (administered in a volume of 10 ml/kg) by means of a metal sonde 30 minutes before transplantation of the cells, in the morning and evening of Day 1 and once per day on Day 2-4, Day 7-11 and Day 14 (a total of 12 times). To the vehicle control group, the respective solvents containing no test materials, were administered in the same manner. On Day 14 or Day 15, the lung of each mouse was taken out, and the weight was measured, and the metastatis inhibition rate was calculated in accordance with the following formula. [formula]
A is the weight of lung of the treated group
B is the average weight of lung of the normal group
C is the average weight of lung of the solvent control group.

[3] = compounds of the formula (I), 1st measurement, read-out: MMP-9 inhibition activities IC50, 1st
[4] = compounds of the formula (I), 2nd measurement, read-out: MMP-9 inhibition activities IC50, 2nd
[5] = compounds of the formula (I), average of 1st and 2nd (or single measurement), read-out: MMP-9 inhibition activities IC50, Average
[6] = intermediates, compounds of the formula (IV), 1st measurement, read-out: MMP-9 inhibition activities IC50, 1st
[7] = intermediates, compounds of the formula (IV), average of 1st and 2nd (or single measurement), read-out: MMP-9 inhibition activities IC50, Average
[8] = intermediates, compounds of the formula (IV), 2nd measurement, read-out: MMP-9 inhibition activities IC50, 2nd

IC50 [1, 3] | IC50 [1, 4] | IC50 [1, 5] | melting point | SMILES | also measured
– | – | – | 205 °C (dec.) | CSC(=C[N+](=O)[O-])NS(=O)(=O)c1ccc2ccccc2c1 [Intermediate 61] | IC50 [1, 6]: 8.2 µM; IC50 [1, 7]: 8.2 µM
15.1 µM | 13.7 µM | 14.4 µM | 155 to 157 °C | COc1ccc(NC(=C[N+](=O)[O-])NNc2ccc(C(F)(F)F)cn2)cc1 [compound 41] | –
35 µM | 39.9 µM | 37.5 µM | 235 °C (dec.) | CNC(=C[N+](=O)[O-])NNc1ccnc2cc(C(F)(F)F)ccc12 [compound 147] | –
6 µM | 9.6 µM | 7.8 µM | 164 °C (dec.) | O=[N+]([O-])C=C(NCC1CCCO1)NNc1cc(C(F)(F)F)cc(Cl)n1 (stereo not shown) [compound 169] | –
– | – | – | 75 to 77 °C | CSC(=C[N+](=O)[O-])NS(=O)(=O)c1ccc(-c2ccccc2)cc1 [Intermediate 62] | IC50 [1, 6]: 4.5 µM; IC50 [1, 7]: 4.5 µM
– | – | – | 214 to 216 °C | CSC(=C[N+](=O)[O-])Nc1ccc2cn[nH]c2c1 [Intermediate 55] | IC50 [1, 6]: 32.5 µM; IC50 [1, 8]: 25.5 µM; IC50 [1, 7]: 29 µM
40.8 µM | 41.5 µM | 41.2 µM | 177 °C (dec.) | CSc1ccc(NC(=C[N+](=O)[O-])NN)cc1 [compound 72] | –
– | – | – | 193 °C (dec.) | CSC(=C[N+](=O)[O-])Nc1ccc(O)cc1 [Intermediate 12] | IC50 [1, 6]: 25.3 µM; IC50 [1, 8]: 24.5 µM; IC50 [1, 7]: 24.9 µM
20.5 µM | 30 µM | 25.3 µM | 180 to 181 °C (dec.) | CNC(=C[N+](=O)[O-])NNc1cc(C(F)(F)F)nc(C(F)(F)F)c1 [compound 99] | –
19.6 µM | 26.8 µM | 23.2 µM | 192 to 193 °C (dec.) | CNC(=C[N+](=O)[O-])NNc1cc(C(F)(F)F)cc(C(F)(F)F)n1 [compound 44] | –
21.9 µM | 30 µM | 26 µM | 136 °C | CNC(=C[N+](=O)[O-])NN=C(C)C [compound 25] | –
6.2 µM | – | 6.2 µM | 166 °C (dec.) | CNC(=C[N+](=O)[O-])NNc1cc(C(F)(F)F)cc(OCCN2CCOCC2)n1 [compound 188] | –
49.6 µM | 49.4 µM | 49.5 µM | 155 °C (dec.) | CCOC(=O)c1ccc(NC(=C[N+](=O)[O-])NN)cc1 [compound 74] | –
39 µM | 36.6 µM | 37.8 µM | 190 °C (dec.) | NNC(=C[N+](=O)[O-])NCc1ccccn1 [compound 79] | –
– | – | – | 221 to 222 °C (dec.) | CSC(=C[N+](=O)[O-])Nc1ccc2c(c1)C(=O)CO2 [Intermediate 52] | IC50 [1, 6]: 61.5 µM; IC50 [1, 8]: 50.4 µM; IC50 [1, 7]: 56 µM
8.1 µM | 13.6 µM | 10.9 µM | 128 °C | CCCCOCCOc1cc(C(F)(F)F)cc(NNC(=C[N+](=O)[O-])NC)n1 [compound 192] | –
11.6 µM | – | 11.6 µM | 180 °C (dec.) | CNC(=C[N+](=O)[O-])NNc1cc(C(F)(F)F)cc(OCC(F)(F)F)n1 [compound 181] | –
45.5 µM | 26.8 µM | 36.2 µM | 210 to 214 °C (dec.) | Cc1nn(C)c(C)c1NC(=C[N+](=O)[O-])NN [compound 111] | –
10.1 µM | 15.8 µM | 13 µM | 192 °C (dec.) | CNC(=C[N+](=O)[O-])NNc1cc(C(F)(F)F)cc(SC)n1 [compound 125] | –
26.7 µM | 27 µM | 26.9 µM | 176 to 177 °C (dec.) | CNC(=C[N+](=O)[O-])NNc1ccc(OC(F)(F)F)cc1 [compound 95] | –
38.7 µM | 26 µM | 32.4 µM | 125 to 126 °C (dec.) | CNC(=C[N+](=O)[O-])NNc1cc(C(F)(F)F)cc(OCCN(C)C)n1 [Compound No. 100] | –

SMILES | IC50 [1, 3] | IC50 [1, 4] | IC50 [1, 5] | melting point | also measured
CNC(=C[N+](=O)[O-])NNc1cc(C(F)(F)F)cc(Cl)n1 [Compound No. 37] | 4.5 µM | 7 µM | 5.8 µM | – | IC50 (human MMP-7): 24.5 µM; Metastatis inhibition ratio (%) ([2]; 30 mg/kg × 11 times, intraperitoneal, Day 14): 40.2%*; Lung weight increase (g) against normal mouse ([2]; 30 mg/kg × 11 times, intraperitoneal, Day 14, vehicle control 0.189 ± 0.07): 0.113 ± 0.06 g; Weight of lung (g) (Day 14) ([2]; 30 mg/kg × 11 times, intraperitoneal, Day 14, vehicle control 0.402, normal mouse 0.213): 0.326 g; inhibition ratio of experimental metastasis of Colon 26/AD to lung ([2]; 30 mg/kg, intraperitoneal administration, total of 11 times, male BALB/c mouse, from lung weight): 40.2%
